Results reported in PubChem BioAssay AID1259407 (Chemical Carcinogenesis Research Information System (CCRIS), 2018).
The source made the active and inactive calls. How the calls were made is not given here.

System: CCRIS mutagenicity, Ames/micronucleus/aberration tests
Experiment: CCRIS mutagenicity studies
[1] = Test System: AMES SALMONELLA TYPHIMURIUM, Strain/Indicator: TA98, Metabolic Activation: NONE, Method: STANDARD PLATE
[2] = Test System: AMES SALMONELLA TYPHIMURIUM, Strain/Indicator: TA98, Metabolic Activation: RAT, LIVER, S-9, AROCLOR 1254, Method: STANDARD PLATE
[3] = Test System: AMES SALMONELLA TYPHIMURIUM, Strain/Indicator: TA100, Metabolic Activation: NONE, Method: STANDARD PLATE
[4] = Test System: AMES SALMONELLA TYPHIMURIUM, Strain/Indicator: TA100, Metabolic Activation: RAT, LIVER, S-9, AROCLOR 1254, Method: STANDARD PLATE
[5] = Test System: AMES SALMONELLA TYPHIMURIUM, Strain/Indicator: TA1537, Metabolic Activation: NONE, Method: STANDARD PLATE

SMILES: C=C(Cl)CCl
- mutagenic call (End Point: IN VITRO CHROMOSOMAL ABERRATIONS, Test System: CHO-LB CELLS, Metabolic Activation: NONE): active; positive
- mutagenic call (End Point: IN VITRO CHROMOSOMAL ABERRATIONS, Test System: CHO-LB CELLS, Metabolic Activation: RAT, LIVER, S-9, AROCLOR 1254): active; positive
- mutagenic call (Test System: AMES SALMONELLA TYPHIMURIUM, Strain/Indicator: TA97, Metabolic Activation: HAMSTER, LIVER, S-9, AROCLOR 1254 (10%), Method: PREINCUBATION): active; positive
- mutagenic call (Test System: AMES SALMONELLA TYPHIMURIUM, Strain/Indicator: TA97, Metabolic Activation: NONE, Method: PREINCUBATION): active; positive
- mutagenic call (Test System: AMES SALMONELLA TYPHIMURIUM, Strain/Indicator: TA97, Metabolic Activation: RAT, LIVER, S-9, AROCLOR 1254 (10%), Method: PREINCUBATION): active; positive
- mutagenic call (Test System: AMES SALMONELLA TYPHIMURIUM, Strain/Indicator: TA98, Metabolic Activation: HAMSTER, LIVER, S-9, AROCLOR 1254 (10%), Method: PREINCUBATION): active; positive
- mutagenic call (Test System: AMES SALMONELLA TYPHIMURIUM, Strain/Indicator: TA98, Metabolic Activation: HAMSTER, LIVER, S-9, AROCLOR 1254, Method: STANDARD PLATE): active; positive
- mutagenic call (Test System: AMES SALMONELLA TYPHIMURIUM, Strain/Indicator: TA98, Metabolic Activation: NONE, Method: PREINCUBATION): active; positive
- mutagenic call [1]: active; positive
- mutagenic call (Test System: AMES SALMONELLA TYPHIMURIUM, Strain/Indicator: TA98, Metabolic Activation: RAT, LIVER, S-9, AROCLOR 1254 (10%), Method: PREINCUBATION): active; positive
- mutagenic call [2]: inactive; negative
- mutagenic call (Test System: AMES SALMONELLA TYPHIMURIUM, Strain/Indicator: TA100, Metabolic Activation: HAMSTER, LIVER, S-9, AROCLOR 1254 (10%), Method: PREINCUBATION): active; positive
- mutagenic call (Test System: AMES SALMONELLA TYPHIMURIUM, Strain/Indicator: TA100, Metabolic Activation: HAMSTER, LIVER, S-9, AROCLOR 1254, Method: STANDARD PLATE): active; positive
- mutagenic call (Test System: AMES SALMONELLA TYPHIMURIUM, Strain/Indicator: TA100, Metabolic Activation: NONE, Method: PREINCUBATION): active; positive
- mutagenic call [3]: active; positive
- mutagenic call (Test System: AMES SALMONELLA TYPHIMURIUM, Strain/Indicator: TA100, Metabolic Activation: RAT, LIVER, MICROSOMES, PHENOBARBITAL, NADPH COFACTORS, Method: STANDARD PLATE): inactive; negative
- mutagenic call (Test System: AMES SALMONELLA TYPHIMURIUM, Strain/Indicator: TA100, Metabolic Activation: RAT, LIVER, MICROSOMES, PHENOBARBITAL, Method: STANDARD PLATE): inactive; negative
- mutagenic call (Test System: AMES SALMONELLA TYPHIMURIUM, Strain/Indicator: TA100, Metabolic Activation: RAT, LIVER, S-9, AROCLOR 1254 (10%), Method: PREINCUBATION): active; positive
- mutagenic call [4]: active; positive
- mutagenic call (Test System: AMES SALMONELLA TYPHIMURIUM, Strain/Indicator: TA102, Metabolic Activation: S-9, Method: STANDARD PLATE): inactive; negative
- mutagenic call (Test System: AMES SALMONELLA TYPHIMURIUM, Strain/Indicator: TA1535, Metabolic Activation: HAMSTER, LIVER, S-9, AROCLOR 1254 (10%), Method: PREINCUBATION): active; positive
- mutagenic call (Test System: AMES SALMONELLA TYPHIMURIUM, Strain/Indicator: TA1535, Metabolic Activation: HAMSTER, LIVER, S-9, AROCLOR 1254, Method: STANDARD PLATE): active; positive
- mutagenic call (Test System: AMES SALMONELLA TYPHIMURIUM, Strain/Indicator: TA1535, Metabolic Activation: NONE, Method: PREINCUBATION): active; positive
- mutagenic call (Test System: AMES SALMONELLA TYPHIMURIUM, Strain/Indicator: TA1535, Metabolic Activation: NONE, Method: STANDARD PLATE): active; positive
- mutagenic call (Test System: AMES SALMONELLA TYPHIMURIUM, Strain/Indicator: TA1535, Metabolic Activation: RAT, LIVER, S-9, AROCLOR 1254 (10%), Method: PREINCUBATION): active; positive
- mutagenic call (Test System: AMES SALMONELLA TYPHIMURIUM, Strain/Indicator: TA1535, Metabolic Activation: RAT, LIVER, S-9, AROCLOR 1254, Method: STANDARD PLATE): active; positive
- mutagenic call (Test System: AMES SALMONELLA TYPHIMURIUM, Strain/Indicator: TA1537, Metabolic Activation: HAMSTER, LIVER, S-9, AROCLOR 1254, Method: STANDARD PLATE): inactive; negative
- mutagenic call [5]: inactive; negative
- mutagenic call (Test System: AMES SALMONELLA TYPHIMURIUM, Strain/Indicator: TA1537, Metabolic Activation: RAT, LIVER, S-9, AROCLOR 1254, Method: STANDARD PLATE): inactive; negative
- mutagenic call (Test System: AMES SALMONELLA TYPHIMURIUM, Strain/Indicator: TA1538, Metabolic Activation: HAMSTER, LIVER, S-9, AROCLOR 1254, Method: STANDARD PLATE): inactive; negative
- mutagenic call (Test System: AMES SALMONELLA TYPHIMURIUM, Strain/Indicator: TA1538, Metabolic Activation: NONE, Method: STANDARD PLATE): inactive; negative
- mutagenic call (Test System: AMES SALMONELLA TYPHIMURIUM, Strain/Indicator: TA1538, Metabolic Activation: RAT, LIVER, S-9, AROCLOR 1254, Method: STANDARD PLATE): inactive; negative
- mutagenic call (Test System: AMES SALMONELLA TYPHIMURIUM, Strain/Indicator: TA1978, Metabolic Activation: NONE, Method: STANDARD PLATE): active; positive
- mutagenic call (Test System: AMES SALMONELLA TYPHIMURIUM, Strain/Indicator: TA1978, Metabolic Activation: RAT, LIVER, S-9, AROCLOR 1254, Method: STANDARD PLATE): active; positive
- mutagenic call (Test System: AMES SALMONELLA TYPHIMURIUM, Strain/Indicator: TA2638, Metabolic Activation: S-9, Method: STANDARD PLATE): inactive; negative
- mutagenic call (Test System: E. COLI, Strain/Indicator: WP2 (PKM101), Metabolic Activation: S-9, Method: STANDARD PLATE): inactive; negative
- mutagenic call (Test System: E. COLI, Strain/Indicator: WP2 UVRA (PKM101), Metabolic Activation: S-9, Method: STANDARD PLATE): active; positive
- mutagenic call (Test System: MOUSE LYMPHOMA, Strain/Indicator: L5178Y (TK+/TK-), Metabolic Activation: NONE, Method: SUSPENSION/PLATE): active; positive. reevaluation of results: positive
- mutagenic call (Test System: MOUSE LYMPHOMA, Strain/Indicator: L5178Y (TK+/TK-), Metabolic Activation: RAT, LIVER, S-9, AROCLOR 1254, Method: SUSPENSION/PLATE): active; positive. reevaluation of results: positive

SMILES: COc1c(O)c(OC)c(Cl)c(Cl)c1Cl
- mutagenic call (Test System: CHINESE HAMSTER V-79, Strain/Indicator: V-79/6-THIOGUANINE, Metabolic Activation: NONE, Method: STANDARD PLATE): inactive; negative

SMILES: C1CSCSC1
- mutagenic call [1]: active; positive
- mutagenic call [2]: inactive; negative
- mutagenic call [3]: active; positive
- mutagenic call [4]: active; positive

SMILES: CC(C)C(=O)Nc1snc2ccccc12
- mutagenic call [3]: inactive; negative
- mutagenic call (Test System: AMES SALMONELLA TYPHIMURIUM, Strain/Indicator: TA100, Metabolic Activation: S-9, Method: STANDARD PLATE): inactive; negative
- mutagenic call [5]: inactive; negative
- mutagenic call (Test System: AMES SALMONELLA TYPHIMURIUM, Strain/Indicator: TA1537, Metabolic Activation: S-9, Method: STANDARD PLATE): inactive; negative
